Test results published in patent publication US20250361240A1, “PYRANOPYRIDINE COMPOUND, PROCESS FOR PREPARING THE SAME, PHARMACEUTICAL COMPOSITION AND USE THEREOF” (Zhejiang Yangli Pharmaceutical Technology Co., Ltd., priority 2024, published 2025).

Experiments:
[1] = biological target: human CYP11B2 (Homo sapiens (Human), UniProt P19099); experiment: Inhibitory activity against hCYP11B2 in G-402 CYP11B2 high expression stable transformants (aldosterone HTRF); type: cell-based; conditions: for IC50: G-402 CYP11B2 cells, 0.2 μM 11-deoxycorticosterone, 16 hours, read-out: hCYP11B2 (AS) Abs IC50; for hCYP11B ½ Selectivity Fold: hCYP11B1 IC50 relative to hCYP11B2 IC50; for selectivity (in words): hCYP11B2 versus hCYP11B1, compared with reference Baxdrostat
Description: (§1) 1. Experimental System: G-402 CYP11B2 or CYP11B1 High Expression Stable Transformants
(§2) The above-mentioned high-expression stable transformants were constructed based on human […] cell line G-402. The artificial lentiviruses were introduced into human CYP11B2 (NM_000498.3) and CYP11B1 (NM_000497.4), respectively.
(§3) Maintenance medium: McCoy's 5A (modified, #16600082, GIBCO)+10% FBS (GIBCO)+1 μg/mL puromycin (A1113803, GIBCO).
(§4) Resuscitation and seeding medium: McCoy's 5A (modified, #16600082, GIBCO)+10% FBS (GIBCO).
(§5) Reaction medium: DMEM/F12 (#11320033, GIBCO)+2.5% activated charcoal filtered FBS (S11695, R & D).
(§6) Seeding: Cells were cultured to a suitable state after resuscitation with maintenance medium, and 96-well flat plates were seeded with seeding medium according to 1×10^4/100 μL/well (unified cell volume).
(§7) Changing solution: The supernatant was aspirated and discarded after seeding overnight (>12 hours) and adherence. 100-150 μL/well serum-free medium was added, and after being aspirated. After aspiration, 50 μL/well reaction medium was added for later use.
(§8) Formulation: Compound was diluted with reaction medium containing 0.4 μM substrate (final experimental concentration is 0.2 μM):
CYP11B2 substrate: 11-deoxycorticosterone (11-deoxycorticosterone, S4243, selleckchem). The final reaction concentration was 0.2 μM
(§9) Loading: The above compound dilutions were added to the cell plates at 50 μL/well. The background and control wells were set.
(§10) Treating and sampling: The cell plates were incubated in a cell incubator for 16 hours after loading, and then each cell plate was centrifuged at 450 g for 2 min. 75 μL supernatant was transferred to a collection plate and frozen at −80° C. for future use (or direct detection).
(§11) Detection: Homogeneous time-resolved fluorescence kit (Cisbio HTRF kit, Cat.64ALDPEG, Cat.62CRTPEG) was used to determine the concentration of aldosterone or cortisol in the supernatant.
(§12) Analysis: The absolute IC50 (Abs IC50) for each compound was calculated using a four parameter fit.

[2] = biological target: human CYP11B1 (Homo sapiens (Human), UniProt P15538); experiment: Inhibitory activity against hCYP11B1 in G-402 CYP11B1 high expression stable transformants (cortisol HTRF); type: cell-based; conditions: G-402 CYP11B1 cells, 0.2 μM 11-deoxycortisol, 16 hours; read-out: hCYP11B1 Abs IC50
Description: as §1, §2, §3, §4, §5, §6, §7, §8
CYP11B1 substrate: 11-deoxycortisol (11-deoxycortisol, S4775, selleckchem). The final reaction concentration was 0.2 μM.
as §9, §10, §11, §12

[3] = Pharmacokinetic test in cynomolgus monkeys (LC/MS); type: in vivo, cynomolgus monkeys (Macaca fascicularis); conditions: both sexes, cynomolgus monkey, plasma, 0.05 mg/kg, 0.05mpk oral
Text: (§13) Adult cynomolgus monkeys (Macaca fascicularis) with suitable body weight and age were selected. 1 male and 1 female cynomolgus monkeys were used for experiment. The adaptation period was 1 week. On the day of the experiment, monkeys were individually housed in stainless steel mesh cages for testing.
(§14) Oral treatment and ACTH working solution (working solution diluted to the desired concentration in PBS sterile solution by ultrapure water filtration through a 0.22 μm filter using Tetracosactrin (HY-P0060, MCE)) were administered as follows: • T=0, 2 monkeys in each group were orally administered 0.5 mg/kg (compound was suspended in 5% aqueous sodium hydroxymethylcellulose solution as vehicle) in a fixed volume of 2 mL/kg; • T=+1 hour (i.e., 1 hour after administration), 14.5 μg/kg of the aforementioned ACTH working solution was injected intramuscularly.
(§15) Sampling test: Blood samples (collected in EDTA anticoagulant tubes) were collected before oral administration (Pre-dose) and 0.5 h, 1 h, 2 h, 4 h, 6 h and 12 h after administration for cortisol concentration measurement in plasma. The blood was centrifuged at 10000 rpm for 15 minutes at 4° C., followed by separation of the plasma and uniform storage at −80° C. for further analysis using an Roche biochemical analyzer to detect aldosterone and cortisol in plasma, and a portion of the plasma (0.5 h, 1 h, 2 h, 4 h, 6 h, and 12 h after administration, and an additional blood collection after 24 h) was taken simultaneously to determine the pharmacokinetic parameters by LC/MS.
(§16) The above experiment was repeated except that: T=0, two monkeys in each group were orally administered at a dose of 0.05 mg/kg (compound was suspended in 5% aqueous sodium hydroxymethylcellulose as vehicle) in a fixed volume of 2 mL/kg.

[4] = tested on: aldosterone synthesis; experiment: Pharmacodynamic test in cynomolgus monkeys with ACTH stimulation: aldosterone in plasma; type: in vivo, cynomolgus monkeys (Macaca fascicularis); conditions: 0.05 mg/kg oral
Text: as §13, §14, §15, §16

[5] = tested on: cortisol levels; experiment: Pharmacodynamic test in cynomolgus monkeys with ACTH stimulation: cortisol in plasma; type: in vivo, cynomolgus monkeys (Macaca fascicularis); conditions: 0.05 mg/kg oral
Text: as §13, §14, §15, §16

Sequence of human CYP11B2 (P19099 25-503): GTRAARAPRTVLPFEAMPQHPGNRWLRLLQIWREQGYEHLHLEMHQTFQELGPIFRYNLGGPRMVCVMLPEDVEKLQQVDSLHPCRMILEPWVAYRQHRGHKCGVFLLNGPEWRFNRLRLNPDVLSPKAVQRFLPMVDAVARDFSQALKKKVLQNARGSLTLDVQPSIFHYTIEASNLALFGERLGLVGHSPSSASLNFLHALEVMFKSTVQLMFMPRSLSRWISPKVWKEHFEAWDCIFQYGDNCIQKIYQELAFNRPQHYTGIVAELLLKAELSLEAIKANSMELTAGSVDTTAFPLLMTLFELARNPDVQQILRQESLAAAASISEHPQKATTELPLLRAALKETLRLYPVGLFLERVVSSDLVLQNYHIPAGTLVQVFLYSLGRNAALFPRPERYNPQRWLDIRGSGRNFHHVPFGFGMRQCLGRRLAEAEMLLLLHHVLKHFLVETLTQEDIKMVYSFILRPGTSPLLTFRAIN
Sequence of human CYP11B1 (P15538 25-503): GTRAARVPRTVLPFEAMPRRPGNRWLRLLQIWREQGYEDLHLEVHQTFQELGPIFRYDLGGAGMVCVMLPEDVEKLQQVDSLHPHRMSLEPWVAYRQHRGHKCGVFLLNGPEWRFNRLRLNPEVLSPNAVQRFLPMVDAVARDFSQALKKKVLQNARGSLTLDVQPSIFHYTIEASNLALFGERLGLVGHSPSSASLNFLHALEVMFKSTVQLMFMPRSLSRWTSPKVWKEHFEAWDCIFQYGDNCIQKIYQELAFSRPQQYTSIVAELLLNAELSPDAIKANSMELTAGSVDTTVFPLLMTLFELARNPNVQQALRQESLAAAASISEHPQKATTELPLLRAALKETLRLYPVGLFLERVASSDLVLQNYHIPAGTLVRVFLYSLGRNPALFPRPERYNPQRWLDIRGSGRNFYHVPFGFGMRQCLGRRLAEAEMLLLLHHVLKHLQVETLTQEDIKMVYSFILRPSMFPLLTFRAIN

Compound	IC50 [1] [µM]	hCYP11B ½ Selectivity Fold [1] [Fold]	IC50 [2] [µM]	selectivity (in words) [1]	further results
[2H][C@@]1(NC(=O)N(C)C)CCOc2c(-c3ccc4c(c3)CCC(=O)N4C)cncc21 [Example 5, (R)-1,1-dimethyl-3-(8-(1-methyl-2-oxo-1,2,3,4-tetrahydroquinolin-6-yl)-3,4-dihydro-2H-pyran[3,2-c]pyridin-4-yl-4-d)urea]	0.0496	68.19	3.38		
CN(C)C(=O)N[C@@H]1CCOc2c(-c3cc4c(cc3F)N(C)C(=O)CC4)cncc21 [Example 6, (R)-3-(8-(7-fluoro-1-methyl-2-oxo-1,2,3,4-tetrahydroquinolin-6-yl)-3,4-dihydro-2H-pyran[3,2-c]pyridin-4-yl)-1,1-dimethylurea]	0.0773	>129.37	> 10	better selectivity	
[2H][C@@]1(NC(=O)CC)CCOc2c(-c3ccc4c(c3)CCC(=O)N4C)cncc21 [Example 2, (R)-N-(8-(1-methyl-2-oxo-1,2,3,4-tetrahydroquinolin-6-yl)-3,4-dihydro-2H-pyran[3,2-c]pyridin-4-yl-4-D)propanamide]	0.0371	144.47	5.36	better selectivity	Cmax [3]: 0.0119 µg/mL; Tmax [3]: 2 h; half-life [3]: 9.7 h; AUC(0-t) ([3]; read-out: AUC0-24 h): 0.165 µg·h/mL; effect on aldosterone synthesis (in words) [4]: no potent inhibition of aldosterone synthesis; Aldosterone Concentration in Plasma ([4]; 0.5 h): 1057.1 pg/mL; Aldosterone Concentration in Plasma ([4]; 1 h (ACTH at +1 hour)): 807.59 pg/mL; Aldosterone Concentration in Plasma ([4]; 2 h): 337.76 pg/mL; Aldosterone Concentration in Plasma ([4]; 4 h): 105.97 pg/mL; Aldosterone Concentration in Plasma ([4]; 6 h): 101.15 pg/mL; Aldosterone Concentration in Plasma ([4]; 12 h): 112.02 pg/mL; Aldosterone Concentration in Plasma ([4]; Pre-dose): 432.52 pg/mL; Cortisol Concentration in Plasma ([5]; 0.5 h): 1299.9 pg/mL; Cortisol Concentration in Plasma ([5]; 1 h (ACTH at +1 hour)): 1178.3 pg/mL; Cortisol Concentration in Plasma ([5]; 2 h): 1809.0 pg/mL; Cortisol Concentration in Plasma ([5]; 4 h): 872.2 pg/mL; Cortisol Concentration in Plasma ([5]; 6 h): 451.8 pg/mL; Cortisol Concentration in Plasma ([5]; 12 h): 710.2 pg/mL; Cortisol Concentration in Plasma ([5]; Pre-dose): 838.9 pg/mL
[2H][C@@]1(NC(=O)N(C)C)CCOc2c(-c3cc4c(cc3F)N(C)C(=O)CC4)cncc21 [Example 7, (R)-3-(8-(7-Fluoro-1-methyl-2-oxo-1,2,3,4-tetrahydroquinolin-6-yl)-3,4-dihydro-2H-pyran[3,2-c]pyridin-4-yl-4-d)-1,1-dimethylurea]	0.172	>58	> 10		
[2H][C@@]1(NC(=O)CC)CCOc2c(-c3cc4c(cc3F)N(C)C(=O)CC4)cncc21 [Example 4, (R)-N-(8-(7-fluoro-1-methyl-2-oxo-1,2,3,4-tetrahydroquinolin-6-yl)-3,4-dihydro-2H-pyran[3,2-c]pyridin-4-yl-4-d)propanamide]	0.0427	112.51	4.8		
CN(C)C(=O)N[C@@H]1CCOc2c(-c3ccc4c(c3)CCC(=O)N4C)cncc21 [Example 3, (R)-1,1-dimethyl-3-(8-(1-methyl-2-oxo-1,2,3,4-tetrahydroquinolin-6-yl)-3,4-dihydro-2H-pyran[3,2-c]pyridin-4-yl)urea]	0.0611	85.95	5.25		
